{"source": "patent US20250312323A1", "about": "(Cavion, Inc., priority 2018, published 2025)", "key": {"[1]": {"type": "in vivo", "conditions": "rat NOAEL 300 mg/kg"}, "[2]": {"assay": "Single-dose crossover pharmacokinetics of IR, MR1 and MR2 capsules (8 mg)", "type": "in vivo, human", "design": "AUC72hr: unit not given beside the values", "conditions": "plasma, following a single 8 mg dose of IR CX-8998"}, "[3]": {"type": "in vivo", "conditions": "dog NOAEL 30 mg/kg"}, "[4]": {"test_system": "harmaline-induced tremor model in rats", "conditions": "3 ascending doses per os; cited from earlier work"}}, "note": "Values joined by “and” are separate entries in the source; they are usually repeats but may differ in a detail not shown here. Equal values may be shown once. Read-outs that look alike come from different tables or passages of the source.", "data": [{"smiles": "C=C(C)c1ccc(CC(=O)N[C@H](C)c2ccc(OCC(F)(F)F)cn2)cc1", "note": "[M01]", "values": [{"measurement": "Total safety margin, AUC24 hr (animal AUC / human estimated AUC at steady state, 10 mg BID)", "setting": "[1]; Day 90, female", "result": 13, "unit": "fold"}, {"measurement": "Total safety margin, Css (animal Cmax / human estimated Css at steady state, 10 mg BID)", "setting": "[1]; Day 90, female", "result": 21, "unit": "fold"}, {"measurement": "Total safety margin, AUC24 hr (animal AUC / human estimated AUC at steady state, 10 mg BID)", "setting": "[1]; Day 90, male", "result": 6.8, "unit": "fold"}, {"measurement": "Total safety margin, Css (animal Cmax / human estimated Css at steady state, 10 mg BID)", "setting": "[1]; Day 90, male", "result": 13, "unit": "fold"}, {"measurement": "AUC72hr", "setting": "[2]", "result": 6876}, {"measurement": "Cmax", "setting": "[2]", "result": 124, "unit": "nM"}, {"measurement": "Total safety margin, AUC24 hr (animal AUC / human estimated AUC at steady state, 10 mg BID)", "setting": "[3]; Day 90, female", "result": 5.6, "unit": "fold"}, {"measurement": "Total safety margin, Css (animal Cmax / human estimated Css at steady state, 10 mg BID)", "setting": "[3]; Day 90, female", "result": "8 fold and 8.0 fold"}, {"measurement": "Total safety margin, AUC24 hr (animal AUC / human estimated AUC at steady state, 10 mg BID)", "setting": "[3]; Day 90, male", "result": 6.5, "unit": "fold"}, {"measurement": "Total safety margin, Css (animal Cmax / human estimated Css at steady state, 10 mg BID)", "setting": "[3]; Day 90, male", "result": 10, "unit": "fold"}]}, {"smiles": "C[C@@H](NC(=O)Cc1ccc(C(C)(C)O)cc1)c1ccc(OCC(F)(F)F)cn1", "note": "[M02]", "values": [{"measurement": "Cmax", "setting": "[2]", "result": 122, "unit": "nM"}]}, {"smiles": "CC1(C)C[C@@H](CN2CCC(F)(CNC(=O)c3cc(Cl)cc(Cl)c3)CC2)CCO1", "note": "[TTA-P2]", "values": [{"measurement": "harmaline-induced tremor", "setting": "[4]", "result": "dose-dependent response"}, {"measurement": "physiologic tremor before administration of harmaline", "setting": "[4]", "result": "dose-dependent response to a reduction in physiologic tremor"}]}]}
